Read-outs that look alike come from different tables or passages of the source.
How the values were obtained:
[1] = tested on: COLON ADENOCARCINOMA 51/A; assay: Early stage murine colon adenocarcinoma 51/A subcutaneous tumor assay; format: in vivo; details: IV 28 mg/kg/inj days 3,5,7,9,11; total dose 140 mg/kg; CDF female mice
Source text: (§1) Inhibition of tumors transplanted into mice is an accepted procedure for studying the efficacy of antitumor agents (Corbett, et al., In vivo Methods for Screening and Preclinical Testing; Use of rodent solid tumors for drug discovery., In: Anticancer Drug Development Guide: Preclinical Screening, Clinical Trials, and Approval, B. Teicher (ed), Humana Press Inc., Totowa, N.J., Chapter 5, pages 75-99 (1997); (Corbett, et al., Int. J. Pharmacog., 33, Supplement, 102-122 (1995)). Murine tumors or human xenographs were implanted essentially as described by Corbett in In vivo Methods for Screening and Preclinical Testing; Use of rodent solid tumors for drug discovery. Briefly, the murine tumor or human xenograph was implanted subcutaneously using either 12-gauge trocar implants or counted number of cells. The location for the trocar insertion is midway between the axillary and inguinal region along the side of the mouse. The trocar is slipped approximately ¾ of an inch subcutaneously up toward the axilla before discharging the tumor fragment, and pinching the skin as the trocar is removed. Alternatively, human tumor cells prepared from a […] of donor tumors (5×10^6 cells) were implanted subcutaneously in a hind-leg of a male or female nude mouse (Charles River). Either a test compound in vehicle or vehicle alone was administered by intravenous bolus injection (iv), intraperitoneal injection (ip), or oral gavage (po). Each treatment group, as well as a group of untreated control animals, consisted of five animals per group in each experiment. Subcutaneous tumor response was monitored by tumor volume measurement performed twice each week over the course of the experiment (60-120 days). Body weights were taken as a general measure of toxicity. The subcutaneous tumor data were analyzed by determining the median tumor weight for each treatment group over the course of the experiment and calculating the tumor growth delay as the difference in days for the treatment versus the control tumors to reach a volume of either 500 or 1000 mm^3.
(§2) Cryptophycin-309 (309) was tested against a variety of murine and human tumors substantially as described supra. Cryptophycin-55 glycinate (55-GLY), Taxol, and Adriamycin (Adria) were also included in certain tests for purposes of comparison. Cryptophycin 55 glycinate is known in the art (WO 98/08505, Example 9) and has the following structure: [drawing 9]
(§3) Tumor Weight(mg)=(a×b^2)/2 where a=tumor length (mm) and b=tumor width (mm).
(§4) Tumor Growth Delay=T−C where T is the median time (days) required for the treatment group tumors to reach a predetermined size, and C is the median time (days) for the control group tumors to reach the same size. Tumor-free survivors are excluded from this calculation, and are tabulated separately (Tumor Free).
(§5) Log Kill=Tumor Growth Delay/(3.32)(Td)
(§6) where Tumor Growth Delay is as previously defined and Td is tumor volume doubling time (days), estimated from the best fit straight line from a log-linear growth plot of the control group of tumors in exponential growth (100-800 mg range)
(§7) %T/C mass—The treatment and control groups are measured when the control group tumors reach approximately 700 to 1200 mg in size (median group). The median tumor weight of each group is determined (including zeros). The T/C value in percent is an indication of antitumor effectiveness. A T/C≦42% is considered significant antitumor activity. A T/C<10% is considered to indicate highly significant antitumor activity.
(§8) Body Weight Loss Nadir—A body weight loss nadir (mean of group) of greater than 20% or drug deaths greater than 20% are considered to indicate an excessively toxic dosage in single course trials.
(§9) Activity Rating—the Activity Rating is derived from the Log Kill according to the following table: […]

[2] = tested on: MAMMARY ADENOCARCINOMA-16/C/Adr; assay: Early stage murine mammary adenocarcinoma-16/C/Adr subcutaneous tumor assay; format: in vivo; details: IV 20 mg/kg/inj days 1,3,5,7,9; total dose 100 mg/kg; C3H female mice
Source text: as §1, §2, §3, §4, §5, §6, §7, §8, §9

[3] = tested on: HUMAN COLON ADENOCARCINOMA 15; format: in vivo; details: Balb/C SCID female mice
Source text: as §1, §2, §3, §4, §5, §6, §7, §8, §9

HUMAN COLON ADEN[…]-116 = assay: Early stage human colon adenocarcinoma HCT-116 xenograft assay; format: in vivo; details: Balb/C SCID female mice
Source text: as §1, §2, §3, §4, §5, §6, §7, §8, §9

[4] = tested on: COLON ADENOCARCINOMA-26/A; format: in vivo, murine; details: Balb/C female mice
Source text: as §1, §2, §3, §4, §5, §6, §7, §8, §9

[5] = IV 16.5 mg/kg/inj days 3,5,7,9,11, total dose 82.5 mg/kg
[6] = IV 25 mg/kg/inj days 3,5,7,9,11, total dose 125 mg/kg
[7] = IV 38 mg/kg/inj days 3,5,7,9,11, total dose 190 mg/kg
[8] = IV 15 mg/kg/inj days 1,3,5,7,9, total dose 75 mg/kg
[9] = IV 23 mg/kg/inj days 1,3,5,7,9, total dose 115 mg/kg
[10] = IV 35 mg/kg/inj days 1,3,5,7,9, total dose 175 mg/kg

Structure (SMILES): COc1ccc(C[C@H]2NC(=O)/C=C/C[C@@H]([C@H](C)[C@@H](OC(=O)CN)[C@@H](Cl)c3ccccc3)OC(=O)[C@H](CC(C)(C)C)OC(=O)[C@H](C)CNC2=O)cc1Cl [Cryptophycin 309, Cryptophycin-309]
- % T/C MASS [1]: 0%
- ACTIVITY RATING [1]: +++ (2.0-2.8)
- DRUG DEATHS [1]: 0/6
- GROWTH DELAY [1]: 20.1 days
- LOG KILL [1]: 2.4
- MEDIAN TUMOR WEIGHT [1]: 0 mg
- % T/C MASS [2]: 0%
- ACTIVITY RATING [2]: ++++ (>2.8)
- DRUG DEATHS [2]: 0/5
- GROWTH DELAY [2]: 11 days
- LOG KILL [2]: 3.0
- MEDIAN TUMOR WEIGHT [2]: 0 mg
- % T/C MASS [3, 5]: 11%
- ACTIVITY RATING [3, 5]: +++ (2.0-2.8)
- DRUG DEATHS [3, 5]: 0/5
- GROWTH DELAY [3, 5]: 24.5 days
- LOG KILL [3, 5]: 2.5
- MEDIAN TUMOR WEIGHT [3, 5]: 126 mg
- % T/C MASS [3, 6]: 0%
- ACTIVITY RATING [3, 6]: ++++ (>2.8)
- DRUG DEATHS [3, 6]: 0/5
- GROWTH DELAY [3, 6]: 31.5 days
- LOG KILL [3, 6]: 3.2
- MEDIAN TUMOR WEIGHT [3, 6]: 0 mg
- % T/C MASS [3, 7]: 0%
- ACTIVITY RATING [3, 7]: ++++ (>2.8)
- DRUG DEATHS [3, 7]: 0/5
- GROWTH DELAY [3, 7]: 32.5 days
- LOG KILL [3, 7]: 3.3
- MEDIAN TUMOR WEIGHT [3, 7]: 0 mg
- % T/C MASS (HUMAN COLON ADEN[…]-116; [5]): 0%
- ACTIVITY RATING (HUMAN COLON ADEN[…]-116; [5]): +++ (2.0-2.8)
- DRUG DEATHS (HUMAN COLON ADEN[…]-116; [5]): 0/5
- GROWTH DELAY (HUMAN COLON ADEN[…]-116; [5]): 22 days
- LOG KILL (HUMAN COLON ADEN[…]-116; [5]): 2.65
- MEDIAN TUMOR WEIGHT (HUMAN COLON ADEN[…]-116; [5]): 0 mg
- % T/C MASS (HUMAN COLON ADEN[…]-116; [6]): 0%
- ACTIVITY RATING (HUMAN COLON ADEN[…]-116; [6]): ++++ (>2.8)
- DRUG DEATHS (HUMAN COLON ADEN[…]-116; [6]): 0/5
- GROWTH DELAY (HUMAN COLON ADEN[…]-116; [6]): 29.5 days
- LOG KILL (HUMAN COLON ADEN[…]-116; [6]): 3.6
- MEDIAN TUMOR WEIGHT (HUMAN COLON ADEN[…]-116; [6]): 0 mg
- % T/C MASS (HUMAN COLON ADEN[…]-116; [7]): 0%
- ACTIVITY RATING (HUMAN COLON ADEN[…]-116; [7]): ++++ (>2.8)
- DRUG DEATHS (HUMAN COLON ADEN[…]-116; [7]): 0/5
- GROWTH DELAY (HUMAN COLON ADEN[…]-116; [7]): 34 days
- LOG KILL (HUMAN COLON ADEN[…]-116; [7]): 4.1
- MEDIAN TUMOR WEIGHT (HUMAN COLON ADEN[…]-116; [7]): 0 mg
- % T/C MASS [4, 8]: 14%
- ACTIVITY RATING [4, 8]: + (0.7-1.2)
- DRUG DEATHS [4, 8]: 0/5
- GROWTH DELAY [4, 8]: 6.65 days
- LOG KILL [4, 8]: 1.2
- MEDIAN TUMOR WEIGHT [4, 8]: 126 mg
- % T/C MASS [4, 9]: 0%
- ACTIVITY RATING [4, 9]: +++ (2.0-2.8)
- DRUG DEATHS [4, 9]: 0/5
- GROWTH DELAY [4, 9]: 12.75 days
- LOG KILL [4, 9]: 2.3
- MEDIAN TUMOR WEIGHT [4, 9]: 0 mg
- % T/C MASS [4, 10]: 0%
- ACTIVITY RATING [4, 10]: +++ (2.0-2.8)
- DRUG DEATHS [4, 10]: 0/5
- GROWTH DELAY [4, 10]: 15.25 days
- LOG KILL [4, 10]: 2.7
- MEDIAN TUMOR WEIGHT [4, 10]: 0 mg

— patent publication US6747021B2, “Cryptophycin compound” (Eli Lilly and Company, priority 2000, dated 2004)
